Measurements published in PubChem BioAssay (NCI).
Several values for one entry are separate records, joined by “and”; a condition that tells them apart may be missing. Equal entries are not always repeated.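 How tested: cells in 96-well plates exposed to compound for 48 hours at five concentrations. GI50: concentration for 50% inhibition of growth. TGI denotes the concentration required for complete inhibition of growth.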

Experiments:
Assay in all cases: NCI tumour cell line growth inhibition, 48 h
LXFL 529 NSCLC = test system: LXFL 529 NSCLC
HOP-18 NSCLC = test system: HOP-18 NSCLC
XF 498 CNS = test system: XF 498 CNS
RXF-631 renal = test system: RXF-631 renal
SNB-78 CNS = test system: SNB-78 CNS
DLD-1 colon = test system: DLD-1 colon
MDA-N = test system: MDA-N
P388 leukemia = test system: P388 leukemia
MDA-MB-435 = test system: MDA-MB-435
BT-549 breast = test system: BT-549 breast
SN12K1 renal = test system: SN12K1 renal

Compound | TGI (LXFL 529 NSCLC) | TGI (HOP-18 NSCLC) | TGI (XF 498 CNS) | TGI (RXF-631 renal) | TGI (SNB-78 CNS) | TGI (DLD-1 colon) | GI50 (LXFL 529 NSCLC) | GI50 (HOP-18 NSCLC) | GI50 (XF 498 CNS) | GI50 (RXF-631 renal) | GI50 (SNB-78 CNS) | GI50 (DLD-1 colon) | GI50 (MDA-N) | TGI (MDA-N) | TGI (P388 leukemia) | TGI (MDA-MB-435) | GI50 (BT-549 breast) | TGI (BT-549 breast) | TGI (SN12K1 renal)
COc1cccc(/C=C(/C(=O)O)c2cc(OC)c(OC)c(OC)c2)c1 | > 100 µM | > 100 µM | > 100 µM | > 100 µM | > 100 µM | > 100 µM |  |  |  |  |  |  |  |  |  |  |  |  | 
C/C(CC(=O)CCCC(=O)Nc1ccc(Cl)cc1Cl)=N/NC(=O)CC#N | > 100 µM | > 100 µM | > 100 µM | > 100 µM | > 100 µM | > 100 µM |  |  |  |  |  |  |  |  |  |  |  |  | 
CC[O-].CC[O-].[O-]c1ccccc1C=Nc1ccccc1.[O-]c1ccccc1C=Nc1ccccc1.[Ti+4] | > 100 µM | > 100 µM | > 100 µM | > 100 µM | > 100 µM | > 100 µM | 2.94 µM | > 100 µM | > 100 µM | > 100 µM | > 100 µM | > 100 µM |  |  |  |  |  |  | 
O=C1c2ccccc2C(=O)N1/N=C\c1ccc(Br)cc1 | > 100 µM | > 10 µM | > 100 µM | > 100 µM | > 100 µM | > 100 µM | > 100 µM |  | > 100 µM | > 100 µM | > 100 µM | > 100 µM |  |  |  |  |  |  | 
CN1CCC23c4c5ccc(O)c4OC2C(=NN=C2CCC4(O)C6Cc7ccc(O)c8c7C4(CCN6C)C2O8)CCC3(O)C1C5 (centres undefined) | > 100 µM | > 100 µM | > 100 µM | > 100 µM |  | > 100 µM |  |  |  |  |  |  |  |  |  |  |  |  | 
C=C(C)C(=O)NC(N)=NC#N | 191 µM | > 57.4 µM and 240 µM | > 96.6 µM and 303 µM |  | 398 µM | 261 µM |  | 115 µM | 126 µM |  | 167 µM | 111 µM | 96.8 µM | 216 µM | 13.9 µM | 259 µM | 67.9 µM | 28.4 µM and 192 µM | > 56.4 µM
CN1C(=O)n2c(nc3ccccc32)C(N=[N+]=[N-])(N=[N+]=[N-])C1=O (centres undefined) | > 100 µM | > 100 µM | > 100 µM | > 100 µM | > 100 µM | > 100 µM |  |  |  |  |  |  |  |  |  |  |  |  | 
CCCCCCCCCOC(=S)NC | 34.8 µM | 44.2 µM | 35.3 µM | 49.5 µM |  | 34.9 µM |  |  |  |  |  |  |  |  |  |  |  |  | 
CCOC(=O)C1Cc2c(ccc(OC)c2OC)C(=O)C1N (centres undefined) | > 100 µM | > 100 µM | > 100 µM | > 100 µM | > 100 µM | > 100 µM |  |  |  |  |  |  |  |  |  |  |  |  | 
CCCC(OCC)(OCC)OCC | > 100 µM | > 100 µM | > 100 µM | > 100 µM | > 100 µM | > 100 µM |  |  |  |  |  |  |  |  |  |  |  |  | 
